# Measured values from patent US10750743B2, “Pyridazinone herbicides” (E.I. DU PONT DE NEMOURS AND COMPANY, priority 2015, dated 2020).
# Legend:
# Format in all cases: in vivo
# [1] = tested on: sedge, umbrella (small-flower umbrella sedge, Cyperus difformis); experiment: Test B flooded paddy test, visual rating; conditions: Flood, 250 g ai/ha, applied to paddy water, rated after 13 to 15 d
# In short: (§1)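 Ratings use a 0-100 visual scale, where 100 is complete control, and compare treated plants with controls after 13 to 15 d of greenhouse growth. Compound went straight into paddy water kept 3 cm over the soil surface, applied to seedlings at the 2-leaf stage.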
# [2] = tested on: ducksalad (Heteranthera limosa); experiment: Test B flooded paddy test, visual rating; conditions: Flood, 250 g ai/ha, applied to paddy water, rated after 13 to 15 d
# In short: as §1
# [3] = tested on: rice (Oryza sativa); experiment: Test B flooded paddy test, visual rating; conditions: Flood, 250 g ai/ha, applied to paddy water, rated after 13 to 15 d
# In short: as §1
# [4] = tested on: barnyardgrass (Echinochloa crus-galli); experiment: Test B flooded paddy test, visual rating; conditions: Flood, 250 g ai/ha, applied to paddy water, rated after 13 to 15 d
# In short: as §1
# [5] = tested on: corn (Zea mays); experiment: Test A postemergence application, visual injury rating; conditions: 0 to 100 scale, 0 no effect, 100 complete control
# In short: (§2)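 Injury ratings, 0 (no effect) to 100 (complete control), were scored visually versus untreated plants roughly 10 d after treatment under greenhouse conditions. Treatments used surfactant-containing solvent formulations, sprayed onto soil preemergence or onto one- to two-leaf seedlings (2-10 cm) postemergence, grown in a loam-sand mix.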
# [6] = tested on: galium (catchweed bedstraw, Galium aparine); experiment: as above; conditions: 0 to 100 scale, 0 no effect, 100 complete control
# In short: as §2
# [7] = tested on: ragweed (common ragweed, Ambrosia elatior); experiment: as above; conditions: 0 to 100 scale, 0 no effect, 100 complete control
# In short: as §2
# [8] = tested on: kochia (Kochia scoparia); experiment: as above; conditions: 0 to 100 scale, 0 no effect, 100 complete control
# In short: as §2
# [9] = tested on: Foxtail, Green; experiment: as above; conditions: 0 to 100 scale, 0 no effect, 100 complete control
# [10] = tested on: pigweed (Amaranthus retroflexus); experiment: as above; conditions: 0 to 100 scale, 0 no effect, 100 complete control
# In short: as §2
# [11] = tested on: wheat (Triticum aestivum); experiment: as above; conditions: 0 to 100 scale, 0 no effect, 100 complete control
# In short: as §2
# [12] = tested on: ryegrass, It. (Italian ryegrass, Lolium multiflorum); experiment: as above; conditions: 0 to 100 scale, 0 no effect, 100 complete control
# In short: as §2
# [13] = tested on: barnyardgrass (Echinochloa crus-galli); experiment: as above; conditions: 0 to 100 scale, 0 no effect, 100 complete control
# In short: as §2
# [14] = tested on: blackgrass (Alopecurus myosuroides); experiment: as above; conditions: 0 to 100 scale, 0 no effect, 100 complete control
# In short: as §2
# [15] = tested on: ragweed (common ragweed, Ambrosia elatior); experiment: Test A preemergence, directed soil spray, visual injury rating; conditions: 0 is no effect, 100 is complete control
# In short: as §2
# [16] = tested on: kochia (Kochia scoparia); experiment: as above; conditions: 0 is no effect, 100 is complete control
# In short: as §2
# [17] = tested on: Foxtail, Green; experiment: as above; conditions: 0 is no effect, 100 is complete control
# [18] = tested on: pigweed (Amaranthus retroflexus); experiment: as above; conditions: 0 is no effect, 100 is complete control
# In short: as §2
# [19] = tested on: ryegrass, It. (Italian ryegrass, Lolium multiflorum); experiment: as above; conditions: 0 is no effect, 100 is complete control
# In short: as §2
# [20] = tested on: barnyardgrass (Echinochloa crus-galli); experiment: as above; conditions: 0 is no effect, 100 is complete control
# In short: as §2
Structure (SMILES),"Sedge, Umbrella plant response rating (0 to 100 scale, 0 is no effect, 100 is complete control) [1]","Ducksalad plant response rating (0 to 100 scale, 0 is no effect, 100 is complete control) [2]","Rice plant response rating (0 to 100 scale, 0 is no effect, 100 is complete control) [3]","Barnyardgrass plant response rating (0 to 100 scale, 0 is no effect, 100 is complete control) [4]",Corn plant response rating ([5]; 31 g ai/ha),Corn plant response rating ([5]; 125 g ai/ha),Galium plant response rating ([6]; 31 g ai/ha),Galium plant response rating ([6]; 125 g ai/ha),Ragweed plant response rating ([7]; 31 g ai/ha),Ragweed plant response rating ([7]; 125 g ai/ha),Kochia plant response rating ([8]; 31 g ai/ha),Kochia plant response rating ([8]; 125 g ai/ha),"Foxtail, Green plant response rating ([9]; 31 g ai/ha)","Foxtail, Green plant response rating ([9]; 125 g ai/ha)",Pigweed plant response rating ([10]; 31 g ai/ha),Pigweed plant response rating ([10]; 125 g ai/ha),Wheat plant response rating ([11]; 31 g ai/ha),Wheat plant response rating ([11]; 125 g ai/ha),"Ryegrass, It. plant response rating ([12]; 31 g ai/ha)","Ryegrass, It. plant response rating ([12]; 125 g ai/ha)",other results
CCC(=O)Oc1c(C)nn(C)c(=O)c1-c1c(C(F)(F)F)ccc2cc(C)oc12 [Compound 47],0,0,0,0,0,0,70,80,40,80,40,70,0,10,90,90,0,0,0,30,"Barnyardgrass plant response rating ([13]; 31 g ai/ha): 0; Barnyardgrass plant response rating ([13]; 125 g ai/ha): 10; Blackgrass plant response rating ([14]; 125 g ai/ha): 0; Plant response rating (0 to 100 scale), Ragweed ([15]; 31 g ai/ha): 20; Plant response rating (0 to 100 scale), Ragweed ([15]; 125 g ai/ha): 80; Plant response rating (0 to 100 scale), Kochia ([16]; 31 g ai/ha): 40; Plant response rating (0 to 100 scale), Kochia ([16]; 125 g ai/ha): 50; Plant response rating (0 to 100 scale), Foxtail, Green ([17]; 31 g ai/ha): 0; Plant response rating (0 to 100 scale), Foxtail, Green ([17]; 125 g ai/ha): 0; Plant response rating (0 to 100 scale), Pigweed ([18]; 31 g ai/ha): 60; Plant response rating (0 to 100 scale), Pigweed ([18]; 125 g ai/ha): 100; Plant response rating (0 to 100 scale), Ryegrass, It. ([19]; 31 g ai/ha): 0; Plant response rating (0 to 100 scale), Ryegrass, It. ([19]; 125 g ai/ha): 80; Plant response rating (0 to 100 scale), Barnyardgrass ([20]; 31 g ai/ha): 0; Plant response rating (0 to 100 scale), Barnyardgrass ([20]; 125 g ai/ha): 30"
CC(=O)Oc1c(C)nn(C)c(=O)c1-c1c(C(F)(F)F)ccc2cc(C)oc12 [Compound 48],0,0,0,0,0,20,80,80,70,90,50,70,0,10,70,100,0,0,0,30,"Barnyardgrass plant response rating ([13]; 31 g ai/ha): 0; Barnyardgrass plant response rating ([13]; 125 g ai/ha): 10; Blackgrass plant response rating ([14]; 31 g ai/ha): 0; Blackgrass plant response rating ([14]; 125 g ai/ha): 0; Plant response rating (0 to 100 scale), Ragweed ([15]; 31 g ai/ha): 0; Plant response rating (0 to 100 scale), Ragweed ([15]; 125 g ai/ha): 90; Plant response rating (0 to 100 scale), Kochia ([16]; 31 g ai/ha): 10; Plant response rating (0 to 100 scale), Kochia ([16]; 125 g ai/ha): 20; Plant response rating (0 to 100 scale), Foxtail, Green ([17]; 31 g ai/ha): 0; Plant response rating (0 to 100 scale), Foxtail, Green ([17]; 125 g ai/ha): 20; Plant response rating (0 to 100 scale), Pigweed ([18]; 31 g ai/ha): 20; Plant response rating (0 to 100 scale), Pigweed ([18]; 125 g ai/ha): 100; Plant response rating (0 to 100 scale), Ryegrass, It. ([19]; 31 g ai/ha): 10; Plant response rating (0 to 100 scale), Ryegrass, It. ([19]; 125 g ai/ha): 20; Plant response rating (0 to 100 scale), Barnyardgrass ([20]; 31 g ai/ha): 0; Plant response rating (0 to 100 scale), Barnyardgrass ([20]; 125 g ai/ha): 20"
Cc1cc2ccc(C(F)(F)F)c(-c3c(O)c(C)nn(C)c3=O)c2o1 [Compound 49],0,0,0,0,0,20,80,90,80,90,60,80,20,30,90,100,0,0,10,40,"Barnyardgrass plant response rating ([13]; 31 g ai/ha): 0; Barnyardgrass plant response rating ([13]; 125 g ai/ha): 10; Blackgrass plant response rating ([14]; 31 g ai/ha): 0; Blackgrass plant response rating ([14]; 125 g ai/ha): 0; Plant response rating (0 to 100 scale), Ragweed ([15]; 31 g ai/ha): 0; Plant response rating (0 to 100 scale), Ragweed ([15]; 125 g ai/ha): 90; Plant response rating (0 to 100 scale), Kochia ([16]; 31 g ai/ha): 0; Plant response rating (0 to 100 scale), Kochia ([16]; 125 g ai/ha): 40; Plant response rating (0 to 100 scale), Foxtail, Green ([17]; 31 g ai/ha): 0; Plant response rating (0 to 100 scale), Foxtail, Green ([17]; 125 g ai/ha): 0; Plant response rating (0 to 100 scale), Pigweed ([18]; 31 g ai/ha): 30; Plant response rating (0 to 100 scale), Pigweed ([18]; 125 g ai/ha): 100; Plant response rating (0 to 100 scale), Ryegrass, It. ([19]; 31 g ai/ha): 20; Plant response rating (0 to 100 scale), Ryegrass, It. ([19]; 125 g ai/ha): 50; Plant response rating (0 to 100 scale), Barnyardgrass ([20]; 31 g ai/ha): 0; Plant response rating (0 to 100 scale), Barnyardgrass ([20]; 125 g ai/ha): 0"
